Species on record: Rattus norvegicus
Experiment: Open TG-GATES - Regimen: Single
Assay type: toxicity, organism-based, Sprague-Dawley
Set-up: regimen Single, gender Male, age 6 weeks
Settings: in vivo, po, 0 mg/kg, route gavage, dose level Control; for APTT / Bas / Eos / Fbg / Hb / Ht / Lym / MCH / MCHC / MCV / Mono / Neu / PT / Plat / RBC / Ret / WBC: tissue Blood; for KIDNEY_L / KIDNEY_R / KIDNEY_TOTAL: tissue Kidney; for LIVER: tissue Liver; for A/G / ALP / ALT / AST / BUN / CRE / Ca / Cl / DBIL / GLC / IP / K / LDH / Na / PL / RALB / TBIL / TC / TG / TP / gamma-GTP: tissue Plasma

With CCO [ALCOHOL] the TERMINAL_BW (3 h) was 207 g, the APTT (3 h) was 17.7 s and the Bas (3 h) was 0%. The Eos (3 h) was 1%, the Fbg (3 h) was 200.4 mg/dL and the Hb (3 h) was 13.3 g/dL. For the same compound, the Ht (3 h) was 39.9%, the Lym (3 h) was 76% and the MCH (3 h) was 21.5 pg. For the same compound, the MCHC (3 h) was 33.4%, the MCV (3 h) was 64.2 fL and the Mono (3 h) was 7.6%. For the same compound, the Neu (3 h) was 15.2%, the PT (3 h) was 12 s and the Plat (3 h) was 110.3 x10_4/uL. The RBC (3 h) was 622.4 x10_4/ul, the Ret (3 h) was 8.9% and the WBC (3 h) was 99.3 x10_2/uL. It also gave a KIDNEY_L (3 h) of 0.9 g, a KIDNEY_R (3 h) of 1 g and a KIDNEY_TOTAL (3 h) of 1.9 g. It also gave an LIVER (3 h) of 9.6 g, an A/G (3 h) of 2.7 and an ALP (3 h) of 951 IU/L. The ALT (3 h) was 39.2 IU/L, the AST (3 h) was 69 IU/L and the BUN (3 h) was 13 mg/dL. It also gave a CRE (3 h) of 0.5 mg/dL, a Ca (3 h) of 10.8 mg/dL and a Cl (3 h) of 103.8 meq/L. It also gave a DBIL (3 h) of 0.02 mg/dL, a GLC (3 h) of 192 mg/dL and an IP (3 h) of 8.7 mg/dL. It also gave a K (3 h) of 4.5 meq/L, an LDH (3 h) of 103.2 IU/L and a Na (3 h) of 140 meq/L. The PL (3 h) was 145.8 mg/dL, the RALB (3 h) was 3.9 g/dL and the TBIL (3 h) was 0.4 mg/dL. The TC (3 h) was 83.8 mg/dL, the TG (3 h) was 59.6 mg/dL and the TP (3 h) was 5.3 g/dL. The gamma-GTP (3 h) was 1.4 IU/L, the TERMINAL_BW (6 h) was 207 g and the APTT (6 h) was 18.8 s. The Bas (6 h) was 0%, the Eos (6 h) was 1% and the Fbg (6 h) was 212 mg/dL. It also gave a Hb (6 h) of 13.9 g/dL, a Ht (6 h) of 41.4% and a Lym (6 h) of 74%. The MCH (6 h) was 21.8 pg, the MCHC (6 h) was 33.5% and the MCV (6 h) was 64.9 fL. The Mono (6 h) was 9.2%, the Neu (6 h) was 15.8% and the PT (6 h) was 11.8 s. The Plat (6 h) was 116.1 x10_4/uL, the RBC (6 h) was 638.8 x10_4/ul and the Ret (6 h) was 10.4%. For the same compound, the WBC (6 h) was 90.5 x10_2/uL, the KIDNEY_L (6 h) was 0.9 g and the KIDNEY_R (6 h) was 1 g. It also gave a KIDNEY_TOTAL (6 h) of 1.9 g, an LIVER (6 h) of 9.6 g and an A/G (6 h) of 2.4. For the same compound, the ALP (6 h) was 727.6 IU/L, the ALT (6 h) was 32.4 IU/L and the AST (6 h) was 58.2 IU/L. The BUN (6 h) was 11 mg/dL, the CRE (6 h) was 0.5 mg/dL and the Ca (6 h) was 10.4 mg/dL. The Cl (6 h) was 105.2 meq/L, the DBIL (6 h) was 0.06 mg/dL and the GLC (6 h) was 184.8 mg/dL. For the same compound, the IP (6 h) was 9.6 mg/dL, the K (6 h) was 4.8 meq/L and the LDH (6 h) was 62 IU/L. It also gave a Na (6 h) of 139.6 meq/L, a PL (6 h) of 141.8 mg/dL and an RALB (6 h) of 3.8 g/dL. It also gave a TBIL (6 h) of 0.4 mg/dL, a TC (6 h) of 80.8 mg/dL and a TG (6 h) of 55 mg/dL. The TP (6 h) was 5.4 g/dL, the gamma-GTP (6 h) was 2 IU/L and the TERMINAL_BW (9 h) was 201.1 g. It also gave an APTT (9 h) of 20.7 s, a Bas (9 h) of 0% and an Eos (9 h) of 1%. For the same compound, the Fbg (9 h) was 199.2 mg/dL, the Hb (9 h) was 13.5 g/dL and the Ht (9 h) was 40.1%. The Lym (9 h) was 66%, the MCH (9 h) was 21.8 pg and the MCHC (9 h) was 33.7%. The MCV (9 h) was 64.6 fL, the Mono (9 h) was 9.2% and the Neu (9 h) was 23.6%. The PT (9 h) was 12.2 s, the Plat (9 h) was 112.2 x10_4/uL and the RBC (9 h) was 620.8 x10_4/ul. It also gave a Ret (9 h) of 11.7%, a WBC (9 h) of 75.4 x10_2/uL and a KIDNEY_L (9 h) of 0.9 g. The KIDNEY_R (9 h) was 0.9 g, the KIDNEY_TOTAL (9 h) was 1.9 g and the LIVER (9 h) was 8.3 g. The A/G (9 h) was 2.8, the ALP (9 h) was 861 IU/L and the ALT (9 h) was 30.8 IU/L. For the same compound, the AST (9 h) was 66.8 IU/L, the BUN (9 h) was 13.4 mg/dL and the CRE (9 h) was 0.5 mg/dL. It also gave a Ca (9 h) of 10.7 mg/dL, a Cl (9 h) of 106.4 meq/L and a DBIL (9 h) of 0.038 mg/dL. It also gave a GLC (9 h) of 196.2 mg/dL, an IP (9 h) of 9.8 mg/dL and a K (9 h) of 5.1 meq/L. The LDH (9 h) was 74.6 IU/L, the Na (9 h) was 137.4 meq/L and the PL (9 h) was 133.4 mg/dL. It also gave an RALB (9 h) of 3.9 g/dL, a TBIL (9 h) of 0.4 mg/dL and a TC (9 h) of 74 mg/dL. The TG (9 h) was 46.6 mg/dL, the TP (9 h) was 5.3 g/dL and the gamma-GTP (9 h) was 2 IU/L. For the same compound, the TERMINAL_BW (24 h) was 219 g, the APTT (24 h) was 17.7 s and the Bas (24 h) was 0%. For the same compound, the Eos (24 h) was 1.4%, the Fbg (24 h) was 207.4 mg/dL and the Hb (24 h) was 13.5 g/dL. For the same compound, the Ht (24 h) was 39.6%, the Lym (24 h) was 74.8% and the MCH (24 h) was 22.3 pg. It also gave an MCHC (24 h) of 34%, an MCV (24 h) of 65.6 fL and a Mono (24 h) of 9.8%. The Neu (24 h) was 14.6%, the PT (24 h) was 11.6 s and the Plat (24 h) was 115.5 x10_4/uL. The RBC (24 h) was 604 x10_4/ul, the Ret (24 h) was 10% and the WBC (24 h) was 101.6 x10_2/uL. The KIDNEY_L (24 h) was 1 g, the KIDNEY_R (24 h) was 1 g and the KIDNEY_TOTAL (24 h) was 2 g. The LIVER (24 h) was 10.4 g, the A/G (24 h) was 2.6 and the ALP (24 h) was 862 IU/L. The ALT (24 h) was 39.8 IU/L, the AST (24 h) was 64.8 IU/L and the BUN (24 h) was 17.2 mg/dL. It also gave a CRE (24 h) of 0.5 mg/dL, a Ca (24 h) of 10.9 mg/dL and a Cl (24 h) of 103.4 meq/L. For the same compound, the DBIL (24 h) was 0.006 mg/dL, the GLC (24 h) was 194.4 mg/dL and the IP (24 h) was 8.5 mg/dL. It also gave a K (24 h) of 4.7 meq/L, an LDH (24 h) of 87.8 IU/L and a Na (24 h) of 139 meq/L. It also gave a PL (24 h) of 150.2 mg/dL, an RALB (24 h) of 4 g/dL and a TBIL (24 h) of 0.3 mg/dL. It also gave a TC (24 h) of 83 mg/dL, a TG (24 h) of 100.8 mg/dL and a TP (24 h) of 5.5 g/dL. It also gave a gamma-GTP (24 h) of 1.4 IU/L.
